According to US10398689B2, “Benzopiperidine derivative, preparation method thereof and medical use thereof” (Jiangsu Hengrui Medicine Co., Ltd., priority 2015, dated 2019):

Tests used:
Format in all cases: cell-based
ER (estrogen receptor) = target: T1, ER (estrogen receptor) (Homo sapiens, UniProt P03372); experiment: Inhibition of the binding of estrogen (E) to estrogen receptor (ER), MCF-7/ERE-luciferase reporter cells; settings: MCF-7/ERE-luciferase cells, 0.1 nM estradiol, 24 hours, chemiluminescence; read-out: IC50 value of inhibition effect on the binding of E to ER
T1 construct: MCF-7/ERE-luciferase monoclonal cells were selected by transfection of MCF-7; host or cells: MCF-7/ERE-luciferase (only the ERE-luciferase reporter was transfected)
T1 sequence (P03372 1-595): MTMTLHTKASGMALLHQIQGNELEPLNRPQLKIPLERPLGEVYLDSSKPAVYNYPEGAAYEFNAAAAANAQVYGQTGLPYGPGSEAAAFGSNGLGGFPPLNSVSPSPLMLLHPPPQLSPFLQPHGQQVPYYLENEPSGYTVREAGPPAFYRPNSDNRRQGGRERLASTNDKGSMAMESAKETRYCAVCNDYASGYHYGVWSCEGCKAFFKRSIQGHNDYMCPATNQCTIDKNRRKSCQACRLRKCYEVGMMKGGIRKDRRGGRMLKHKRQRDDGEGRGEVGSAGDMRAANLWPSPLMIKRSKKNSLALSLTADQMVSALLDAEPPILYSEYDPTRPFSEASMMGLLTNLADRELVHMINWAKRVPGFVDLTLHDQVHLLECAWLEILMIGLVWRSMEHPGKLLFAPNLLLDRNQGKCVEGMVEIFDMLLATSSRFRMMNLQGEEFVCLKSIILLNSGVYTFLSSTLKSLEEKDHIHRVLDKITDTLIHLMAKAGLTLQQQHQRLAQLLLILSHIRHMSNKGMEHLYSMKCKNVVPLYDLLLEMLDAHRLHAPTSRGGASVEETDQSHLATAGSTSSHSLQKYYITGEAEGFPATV
Protocol: The compounds of the present invention have an inhibition effect on the binding of E (estrogen) to ER (estrogen receptor), thereby blocking the binding of a complex of E and ER complex to ERE (estrogen responsive element), and subsequently blocking the expression of downstream luciferase protein.
The inhibition effect of the compounds on the binding of E to ER in vitro was tested by the following method.
The object of this experiment was to determine the inhibition effect of the compounds on the binding of E to ER, and the in vitro activity of the compounds was evaluated according to the IC50 values.
ERE was cloned into the upstream of the luciferase gene, and MCF-7/ERE-luciferase monoclonal cells were selected by transfection of MCF-7 (Cell Bank of Chinese Academy of Sciences typical culture preservation Committee, TCHu74). MCF-7/ERE-luciferase cells were inoculated into the MEM medium (hyclone, SH30024.01B) containing 10% charcoal stripped FBS (Moregate, FBSF), 1% sodium pyruvate (Sigma, S8636), 1% nonessential amino acids (Sigma, M7145) and 500 μg/ml G418 in a 96-well plates with a density of 30,000 cells/well, and the cells were incubated under the conditions of 37° C., and 5% CO2. The drug was prepared as a 20 mM stock solution that was later diluted with 100% DMSO in 10 fold concentration gradient, and then diluted 20-fold with the medium DMEM. After incubation for 24 hours, the medium was removed, then 0.1 nM estradiol (Sigma, E2758) and 10 μl of the drug diluted with the medium were added to each well, and the control group was added with DMSO. The plate was gently shaken and incubated in a incubator at 37° C., 5% CO2. After 24 hours, the cell culture medium was discarded, Then, 50 μl of the prepared luciferase substrate (Promega, E6110) was added to each well, and the plate was placed in the dark at room temperature for 10-15 minutes, then the chemiluminescence signal value was determined.
The inhibition effect of the compounds of the present invention on the binding of E to ER was tested by the experiment described above. The values of the chemiluminescence signal vs the logarithmic concentrations of the compounds were plotted using Graphpad Prism, and the measured IC50 values are shown in Table 1.

ERα = target: T2, ERα (Homo sapiens, UniProt P03372); experiment: Degradation effect on ERα in MCF-7 cells (ERα Duoset ELISA); settings: MCF7; compound at 3 μM, relative to positive control AZD-9496 at 3 μM set to 100%
T2 construct: host or cells: MCF-7
T2 sequence (P03372 1-595): T1 sequence (P03372 1-595)
Protocol: In order to determine the degradation effect on ER induced by the compound of present invention, the following method was used to determine the degradation effect of the compounds of the present invention on ER.
MCF-7 cell line (TChu 74, Cell Bank of Chinese Academy of Sciences typical culture preservation Committee)
ERα Duoset Kit (#DYC5715E, R&D System)
MCF-7 cells well incubated in DMEM/F-12 medium containing 10% FBS.
On the first day of the experiment, MCF-7 cells were resuspended in DMEM/F-12 medium containing 10% FBS treated by activated carbon, then inoculated into a 48-well plate with a density of 50,000 cells/well and incubated for 22-24 hours.
On the second day of the experiment, the test compound was diluted with medium and added to a 48-well plate. The ERα-capture antibody was diluted to 1 μg/ml with PBS, and added with 100 μl/well to a 96-well plate at 100 μl/well. The plate was sealed and coated overnight at room temperature.
On the third day of the experiment, the coated 96-well plate was washed twice with PBS, added with a sealing solution (1% BSA in PBS) at 110 μl/well and sealed for 1 hour at room temperature. The 48-well plate was washed once and the residual liquid was removed. Then, 60 μl of lysis buffer (6 M urea, 1 mM EDTA, 0.5% Triton X-100, 1 mM PMSF, Protease Inhibitor cocktail) was added to each well. After lysis on ice for 15 minutes, the diluent (1 mM EDTA, 0.5% TritonX-100 dissolved in PBS) was added. The cell-diluted lysate was transferred to a 96-well plate at 100 μl/well, then the plate was incubated at room temperature for 2 hours. The diluted primary antibody was added after the plate was washed 4 times with a washing liquid (PBST). After incubation for 1 hour, the 96-well plate was washed 4 times, and the second antibody was added, then the plate was incubated for 30 minutes. After the plate was washed with a washing liquid, TMB chromogenic solution was added and incubated for 15 minutes. The reaction was stopped by the addition of 1 M H2SO4, then the light absorption at a wavelength of 450 nm was read. The degradation effect of the compound AZD9496 at 3 μM was set to 100%, the Emax of other compounds=(ODnegative control−ODcompound 3 μM)/(ODnegative control−ODAZD9496 3 μM)×100%, and the negative control was a well with DMSO.

MCF7 cells = experiment: Inhibition of the proliferation of MCF7 cells (Cell Titer-Glo); settings: Homo sapiens, MCF-7 cells, 72 hours, read-out: IC50 value of inhibition effect on the proliferation of MCF7 cells
Protocol: The object of this experiment was to determine the inhibition effect of the compounds on the proliferation activity of MCF7 cells, and the in vitro activity of the compounds was evaluated according to the IC50 values.
MCF-7 cells (Cell Bank of Chinese Academy of Sciences typical culture preservation Committee, TChu 74) were inoculated into the MEM medium (Hyclone, SH30024.01B) containing 10% FBS (Gibco, 10099-141), 1% sodium pyruvate (Sigma, S8636), and 1% nonessential amino acids (Sigma, M7145) in a 96-well plate with a density of 40,000 cells/well, and the cells were incubated under the conditions of 37° C., and 5% CO2. The compound was prepared as a 20 mM stock solution that was later diluted to 1000× final concentration with 100% DMSO, and then diluted with 20-fold medium containing 2% FBS. After incubation for 24 hours, the medium was removed and 90 μl of the medium containing 2% FBS and 10 μl of the drug were added to each well, 10 […] of DMSO was added to the control group, and the blank group contained only 100 μl medium containing 2% FBS. The plate was gently shaken and incubated in a incubator at 37° C., 5% CO2. After 72 hours later, 50 μl of mixed Cell Titer-Glo (Promega, G7571) was added to each well. The plate was shaken until the ingredients were mixed uniformly, and placed at room temperature for 10 minutes, then the chemiluminescence signal value was determined. The inhibition effect of the compound AZD9496 at 100 nM on the proliferation of MCF-7 cells was set to 100%, the maximum inhibition rate of other compounds=(chemiluminescence signal valuenegative control−chemiluminescence signal valuecompound 100 nm)/(chemiluminescence signal valuenegative control−chemiluminescence signal valueAZD9496 100 nm)×100%, and the negative control was a well with 0.5% DMSO.
The values of the chemiluminescence signals vs the logarithmic concentrations of the compounds were plotted using Graghpad Prism to obtain the IC50 values.

IC50 (ER (estrogen receptor)) [nM] | Emax at 3 µM (ERα) [%] | IC50 (MCF7 cells) [nM] | Compound
0.6 | 115 | 0.23 | CC(C)c1ccc(N2[C@@H](c3c(F)cc(/C=C/C(=O)O)cc3F)c3ccc(-c4cnn(C)c4)cc3C[C@@H]2C)cc1 (racemic) [Example 40, (E)-3-(3,5-Difluoro-4-((1S,3R/1R,3S)-2-(4-isopropylphenyl)-3-methyl-6-(1-methyl-1H-pyrazol-4-yl)-1,2,3,4-tetrahydroisoquinolin-1-yl)phenyl)acrylic acid]
1.71 | 114 | 0.4 | CCc1ccc(N2[C@H](c3ccc(/C=C/C(=O)O)cc3)c3ccc(-c4cnn(C)c4)cc3C[C@H]2C)cc1 [Example 2, (E)-3-(4-((1R,3R)-2-(4-Ethylphenyl)-3-methyl-6-(1-methyl-1H-pyrazol-4-yl)-1,2,3,4-tetrahydroisoquinolin-1-yl)phenyl)acrylic acid]
0.27 | 136 | 0.42 | CC1Cc2cc(-c3cnn(C)c3)ccc2C(c2c(F)cc(/C=C/C(=O)O)cc2F)N1c1ccc(C2CC2)cc1 [Example 4, (E)-3-(4-((1S,3R/1R,3S)-2-(4-Cyclopropylphenyl)-3-methyl-6-(1-methyl-1H-pyrazol-4-yl)-1,2,3,4-tetrahydroisoquinolin-1-yl)-3,5-difluorophenyl)acrylic acid]
1.42 | 111 | 0.65 | COc1ccc(N2C(C)Cc3cc(-c4cnn(C)c4)ccc3C2c2ccc(/C=C/C(=O)O)cc2)cc1 [Example 46, (E)-3-(4-((1R,3R/1S,3S)-2-(4-Methoxyphenyl)-3-methyl-6-(1-methyl-1H-pyrazol-4-yl)-1,2,3,4-tetrahydroisoquinolin-1-yl)phenyl)acrylic acid]
